Test results: patent US20140051815A1, “ORGANIC SULFONIC ACID COMPOUND, DOPANT HAVING SAME, AND CONDUCTIVE POLYMER COMPLEX HAVING THE DOPANT” (Ajou University Industry-Academic Cooperation Foundation, priority 2011, published 2014)

Tests used:
[1] = Solubility in various solvents; assay type: physicochemical; design: key: +++: dissolved well; ++: almost dissolved, but not completely dissolved and somewhat precipitated; +: opaquely dispersed; −: not dissolved but precipitated
Method: Solubility properties of polyaniline ES in various organic solvents using the dopants of Examples were compared and checked in the same experimental conditions. […] After a basket mixing process, transmittances were measured and an average particle size was measured by using a particle size analyzer, and measurement results are as shown in Table 5.

[2] = Acidity / pH of doping solution, titration with 0.1 N KOH; assay type: physicochemical
Excerpt: In order to confirm a doping function of the dopants of Examples, pH of a doping solution was checked by using a 0.1 N KOH solution. […] Therefore, a function as a dopant could be confirmed.

| SMILES | Solubility in BuO—EtOH [1] | Solubility in CHCl3 [1] | Solubility in H2O [1] | Solubility in MEK [1] | Solubility in MeOH [1] | Solubility in NMP [1] | Solubility in isopropyl alcohol [1] | Solubility in m-cresol [1] | Solubility in toluene [1] | Titration (Acidity) 0.1N KOH; converted into sulfonic acid [2] |
| --- | --- | --- | --- | --- | --- | --- | --- | --- | --- | --- |
| O=S(=O)(O)CCCOc1ccc(-c2ccccc2)cc1 [Dopant IV] | + | − | +++ | + | +++ | +++ | + | +++ | − |  |
| O=S(=O)(O)CCCOc1ccc(O)cc1 [Dopant II] | +++ | − | +++ | + | +++ | +++ | ++ | ++ | − | 85% |
| Cc1cccc(OCCCS(=O)(=O)O)c1 [Dopant I] | ++ | − | +++ | + | +++ | ++ | +++ | ++ | − | 86% |

Second part, the compound after the results:

| Solubility in BuO—EtOH [1] | Solubility in CHCl3 [1] | Solubility in H2O [1] | Solubility in MEK [1] | Solubility in MeOH [1] | Solubility in NMP [1] | Solubility in isopropyl alcohol [1] | Solubility in m-cresol [1] | Solubility in toluene [1] | Titration (Acidity) 0.1N KOH; converted into sulfonic acid [2] | SMILES |
| --- | --- | --- | --- | --- | --- | --- | --- | --- | --- | --- |
| +++ | − | +++ | + | +++ | +++ | +++ | ++ | − |  | Cc1cc(OCCCS(=O)(=O)O)ccc1O [Dopant VI] |
| +++ | − | +++ | ++ | +++ | +++ | ++ | ++ | − |  | O=S(=O)(O)CCCOc1ccc(OCc2ccccc2)cc1 [Dopant V] |
